Test results reported in patent US10968210B2, “Diamino-alkylamino-linked arylsulfonamide compounds with selective activity in voltage-gated sodium channels” (Merck Sharp & Dohme Corp., priority 2016, dated 2021).

How the values were obtained:
[1] = molecular target: T1, human Nav 1.7 channels stably expressed in HEK 293 cells (Homo sapiens, UniProt Q15858); experiment: IonWorks Quattro automated patch-clamp, inactivated state block of Nav 1.7; type: cell-based; details: double-pulse protocol, HEK 293 cells held at -100 mV, read-out: potency for the Nav 1.7 sodium ion channel (IC50, IonWorks)
T1 construct: expressed in transfected cells; host or cells: HEK 293
Procedure, shortened: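 Inactivated-state block was recorded by automated perforated patch (nystatin plus amphotericin) using a double-pulse protocol. Holding was −100 mV (Nav1.7) or −110 mV (Nav1.5), with a 1000 ms prepulse to −10/−30 mV giving ~50% inactivation, then a 10 ms test pulse. IC50s came from Hill fits of peak current inhibition.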

[2] = molecular target: T2, human Nav 1.5 channels stably expressed in HEK 293 cells (Homo sapiens, UniProt Q14524); experiment: IonWorks Quattro automated patch-clamp, inactivated state block of Nav 1.5 (reported as ratio to Nav 1.7 potency); type: cell-based; details: selectivity for Nav 1.7 over Nav 1.5, both by IonWorks
T2 construct: expressed in transfected cells; host or cells: HEK 293
Method: IonWorks® Experimental Procedure
Compounds were tested on human Nav 1.7 and Nav 1.5 channels stably expressed in HEK 293 cells. Sodium current measurements on IonWorks Quattro: An automated patch-clamp assay on the IonWorks Quattro platform (Molecular Devices) was used to measure state-dependent inhibition of human Nav 1.7 and Nav 1.5 channels. Cells were sealed on a planar substrate using the Population Patch Plate (PPC) technology. Electrical access was obtained using both nystatin and amphotericin. A double-pulse protocol was used for the determination of IC50 values for inactivated state block. Nav 1.7 and Nav 1.5 expressing cells were voltage clamped at −100 mV and −110 mV, respectively. A depolarizing prepulse to −10 mV (Nav 1.7) or −30 mV (Nav 1.5) for 1000 ms followed by a 10 ms repolarization to ˜100 mV (Nav1.7) or −110 mV (Nav 1.5) was given to generate fractional channel inactivation of ˜50%, followed by a 10 ms test pulse to −10 mV (Nav 1.7) or −30 mV (Nav 1.5) to measure peak current in control conditions and after compound addition. The following recording solutions were used (mM). External: 150 NaCl, 2 CaCl2, 5 KCl, 1 Mg Cl2, 10 HEPES, 12 Dextrose; internal: 120 CsF, 30 CsCl, 10 EGTA, 5 HEPES, 5 NaF, 2 MgCl2.
For all electrophysiology experiments, offline analysis was used to determine percent inhibition as a function of drug concentration. IC50 values were determined by fitting to the Hill equation.
The various compounds in Examples 1 through 4 and Tables 1 through 3 exemplified above were assayed for activity and selectivity using the foregoing IonWorks® technique. The results are reported in the following paragraph in a format expressing the identification of the compound with reference Example and compound (e.g. Ex 1-9 is Example 1, compound 9) followed by the observed potency in nM and the ratio of Nav1.7 potency: Nav1.5 potency as described here. Thus, Ex1-9: 1.7=65/ratio=641 identifies compound Example 1, compound 9 as having 65 nM potency for the Nav 1.7 sodium ion channel (as measured by IonWorks®) and a ratio of 641 Nav 1.7: Nav 1.5 potency, determined by IonWorks® measurement.

T1 sequence (Q15858 whole entry): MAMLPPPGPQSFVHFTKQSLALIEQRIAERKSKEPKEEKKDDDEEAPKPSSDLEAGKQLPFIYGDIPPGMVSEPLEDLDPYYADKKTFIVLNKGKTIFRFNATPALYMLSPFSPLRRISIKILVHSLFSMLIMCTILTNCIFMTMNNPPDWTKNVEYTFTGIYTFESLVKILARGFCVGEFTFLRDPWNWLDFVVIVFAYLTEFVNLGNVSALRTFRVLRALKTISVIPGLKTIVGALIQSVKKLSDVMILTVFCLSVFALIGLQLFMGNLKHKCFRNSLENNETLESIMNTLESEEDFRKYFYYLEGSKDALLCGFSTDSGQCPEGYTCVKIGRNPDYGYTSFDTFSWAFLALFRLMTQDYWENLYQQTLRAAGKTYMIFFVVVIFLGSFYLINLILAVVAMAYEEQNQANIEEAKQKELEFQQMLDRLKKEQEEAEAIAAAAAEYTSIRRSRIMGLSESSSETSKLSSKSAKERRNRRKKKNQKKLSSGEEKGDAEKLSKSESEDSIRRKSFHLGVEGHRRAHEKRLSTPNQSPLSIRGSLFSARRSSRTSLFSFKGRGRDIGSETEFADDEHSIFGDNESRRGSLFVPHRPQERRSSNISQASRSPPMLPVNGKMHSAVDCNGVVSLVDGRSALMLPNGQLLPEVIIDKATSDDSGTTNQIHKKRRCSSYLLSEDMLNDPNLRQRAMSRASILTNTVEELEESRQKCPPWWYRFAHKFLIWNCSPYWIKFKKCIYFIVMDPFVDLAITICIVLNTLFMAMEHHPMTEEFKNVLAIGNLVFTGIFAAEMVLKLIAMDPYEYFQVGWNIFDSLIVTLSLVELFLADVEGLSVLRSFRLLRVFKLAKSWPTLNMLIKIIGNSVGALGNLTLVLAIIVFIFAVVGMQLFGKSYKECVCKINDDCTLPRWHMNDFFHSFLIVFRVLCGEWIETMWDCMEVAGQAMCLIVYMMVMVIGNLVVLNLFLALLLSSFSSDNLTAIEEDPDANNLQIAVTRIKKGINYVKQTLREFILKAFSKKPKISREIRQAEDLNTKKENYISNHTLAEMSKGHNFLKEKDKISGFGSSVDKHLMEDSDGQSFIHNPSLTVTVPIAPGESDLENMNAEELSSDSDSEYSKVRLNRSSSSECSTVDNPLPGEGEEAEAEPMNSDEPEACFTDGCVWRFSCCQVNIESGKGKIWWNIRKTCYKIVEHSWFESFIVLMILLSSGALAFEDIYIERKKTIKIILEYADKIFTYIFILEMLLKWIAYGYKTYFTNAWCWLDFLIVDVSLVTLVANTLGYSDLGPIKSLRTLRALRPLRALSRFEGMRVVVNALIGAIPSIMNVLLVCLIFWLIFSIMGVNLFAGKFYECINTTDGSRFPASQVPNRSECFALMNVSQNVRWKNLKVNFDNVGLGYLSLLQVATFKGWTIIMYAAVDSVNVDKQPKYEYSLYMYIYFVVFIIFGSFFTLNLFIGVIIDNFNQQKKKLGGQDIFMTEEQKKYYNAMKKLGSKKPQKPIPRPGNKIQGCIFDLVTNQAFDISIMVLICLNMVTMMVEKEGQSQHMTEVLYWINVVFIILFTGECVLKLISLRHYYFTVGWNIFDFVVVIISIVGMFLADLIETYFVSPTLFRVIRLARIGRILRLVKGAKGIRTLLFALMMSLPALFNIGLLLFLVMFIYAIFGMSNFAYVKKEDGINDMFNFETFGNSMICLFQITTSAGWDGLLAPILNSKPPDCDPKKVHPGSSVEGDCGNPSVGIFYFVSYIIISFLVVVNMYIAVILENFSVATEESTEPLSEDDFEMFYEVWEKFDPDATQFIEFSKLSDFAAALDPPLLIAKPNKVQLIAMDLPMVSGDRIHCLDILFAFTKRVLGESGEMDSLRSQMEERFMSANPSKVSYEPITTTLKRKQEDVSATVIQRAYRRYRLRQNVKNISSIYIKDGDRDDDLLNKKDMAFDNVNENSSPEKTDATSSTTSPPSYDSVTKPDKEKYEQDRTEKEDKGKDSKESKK
T2 sequence (Q14524 whole entry): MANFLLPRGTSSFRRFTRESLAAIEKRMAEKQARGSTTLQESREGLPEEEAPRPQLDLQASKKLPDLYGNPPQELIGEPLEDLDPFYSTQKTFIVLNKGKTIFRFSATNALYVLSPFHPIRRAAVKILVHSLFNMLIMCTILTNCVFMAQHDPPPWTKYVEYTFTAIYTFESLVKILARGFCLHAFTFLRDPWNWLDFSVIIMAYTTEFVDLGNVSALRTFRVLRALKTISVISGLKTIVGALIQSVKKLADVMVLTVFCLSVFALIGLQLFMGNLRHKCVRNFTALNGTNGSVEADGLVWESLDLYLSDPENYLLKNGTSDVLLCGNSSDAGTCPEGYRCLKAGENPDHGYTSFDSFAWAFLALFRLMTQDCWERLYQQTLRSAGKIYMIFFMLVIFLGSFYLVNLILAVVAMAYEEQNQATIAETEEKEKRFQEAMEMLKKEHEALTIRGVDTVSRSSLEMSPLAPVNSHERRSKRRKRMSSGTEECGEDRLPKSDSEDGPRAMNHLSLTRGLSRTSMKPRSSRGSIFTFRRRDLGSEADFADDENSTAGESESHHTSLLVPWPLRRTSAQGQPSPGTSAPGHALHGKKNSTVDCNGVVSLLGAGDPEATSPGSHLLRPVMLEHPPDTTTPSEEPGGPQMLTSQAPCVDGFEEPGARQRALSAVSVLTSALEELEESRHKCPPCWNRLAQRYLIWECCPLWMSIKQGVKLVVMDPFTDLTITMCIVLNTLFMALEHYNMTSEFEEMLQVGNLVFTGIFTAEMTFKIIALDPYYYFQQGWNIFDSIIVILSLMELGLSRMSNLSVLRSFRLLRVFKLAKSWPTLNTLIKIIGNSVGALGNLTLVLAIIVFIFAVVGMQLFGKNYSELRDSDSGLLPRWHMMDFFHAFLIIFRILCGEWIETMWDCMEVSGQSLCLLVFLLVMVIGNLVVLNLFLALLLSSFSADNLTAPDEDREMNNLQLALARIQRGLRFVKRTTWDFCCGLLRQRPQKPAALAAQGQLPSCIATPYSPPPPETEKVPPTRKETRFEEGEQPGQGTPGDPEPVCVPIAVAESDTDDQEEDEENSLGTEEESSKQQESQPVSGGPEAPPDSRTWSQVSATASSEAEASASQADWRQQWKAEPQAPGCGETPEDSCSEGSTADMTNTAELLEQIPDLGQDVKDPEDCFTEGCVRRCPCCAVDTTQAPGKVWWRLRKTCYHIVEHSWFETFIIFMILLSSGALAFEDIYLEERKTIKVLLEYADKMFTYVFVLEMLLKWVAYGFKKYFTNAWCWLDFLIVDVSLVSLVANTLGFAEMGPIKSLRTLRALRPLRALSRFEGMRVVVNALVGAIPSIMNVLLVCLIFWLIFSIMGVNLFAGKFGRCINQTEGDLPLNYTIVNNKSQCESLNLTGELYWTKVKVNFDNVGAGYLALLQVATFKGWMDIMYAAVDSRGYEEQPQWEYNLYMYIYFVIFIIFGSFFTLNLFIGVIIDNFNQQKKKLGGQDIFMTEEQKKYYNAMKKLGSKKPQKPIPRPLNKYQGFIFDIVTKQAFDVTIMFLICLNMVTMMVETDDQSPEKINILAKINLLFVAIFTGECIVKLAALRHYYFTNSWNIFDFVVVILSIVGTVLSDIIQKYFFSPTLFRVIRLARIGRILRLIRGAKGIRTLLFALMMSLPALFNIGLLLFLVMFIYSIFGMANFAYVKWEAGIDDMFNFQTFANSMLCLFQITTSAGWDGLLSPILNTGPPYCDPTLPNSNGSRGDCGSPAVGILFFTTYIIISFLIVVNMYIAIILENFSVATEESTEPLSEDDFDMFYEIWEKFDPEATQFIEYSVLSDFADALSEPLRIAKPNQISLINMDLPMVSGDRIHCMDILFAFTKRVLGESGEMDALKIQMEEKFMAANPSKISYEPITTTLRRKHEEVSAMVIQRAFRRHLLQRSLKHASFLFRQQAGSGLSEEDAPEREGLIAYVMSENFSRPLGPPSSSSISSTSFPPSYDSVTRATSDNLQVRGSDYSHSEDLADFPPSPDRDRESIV

Row | Compound | IC50 [1] [µM] | ratio of Nav 1.7 : Nav 1.5 potency (IonWorks) [2]
1 | NCC1CCN(CCCCNc2cc(F)c(S(=O)(=O)Nc3nccs3)cc2Cl)C1 (centres unmarked) [Ex 1-47, 4-({4-[3-(aminomethyl)pyrrolidin-1-yl]butyl}amino)-5-chloro-2-fluoro-N-1,3-thiazol-2-ylbenzenesulfonamide] | 0.022 | > 1500
2 | O=S(=O)(Nc1nccs1)c1cc(Cl)c(NCCCCNCC2Cc3ccccc3CN2)cc1F (single isomer, unassigned) [Ex 1-18, (R or S)-5-chloro-2-fluoro-4-({4-[(1,2,3,4-tetrahydroisoquinolin-3-ylmethyl)amino]butyl}amino)-N-1,3-thiazol-2-ylbenzenesulfonamide] | 0.0079 | > 4177
3 | O=S(=O)(Nc1nccs1)c1cc(Cl)c(NCCCCN2CCC3CCC(C2)N3)cc1F (centres unmarked) [Ex 1-52, 5-chloro-4-{[4-(3,9-diazabicyclo[4.2.1]non-3-yl)butyl]amino}-2-fluoro-N-1,3-thiazol-2-ylbenzenesulfonamide] | 0.096 | > 343
4 | NCC1CCN1CCCCNc1cc(F)c(S(=O)(=O)Nc2nccs2)cc1Cl (single isomer, unassigned) [Ex 16-53, (S or R)-4-({4-[2-(aminomethyl)-azetidin-1-yl]butyl}amino)-5-chloro-2-fluoro-N-1,3-thiazol-2-ylbenzene-sulfonamide] | 0.042 | > 786
5 | O=S(=O)(Nc1nccs1)c1ccc(NCCCCNC[C@@H]2CCCN2)c(Cl)c1 [Ex 7-12, 3-chloro-4-[(4-{[(2S)-pyrrolidin-2-ylmethyl]amino}butyl)amino]-N-1,3-thiazol-2-ylbenzenesulfonamide] | 0.027 | > 1200
6 | COc1ccc(CC2(CNCCCCNc3cc(F)c(S(=O)(=O)Nc4nccs4)cc3Cl)CCCN2)cc1 (single isomer, unassigned) [Ex 1-16 Enantiomer B, (R or S)-5-chloro-2-fluoro-4-{[4-({[2-(4-methoxybenzyl)pyrrolidin-2-yl]methyl}amino)butyl]amino}-N-1,3-thiazol-2-ylbenzenesulfonamide] | 0.13 | 185
7 | NCC(F)CNCCCCNc1cc(F)c(S(=O)(=O)Nc2ncc(F)s2)cc1Cl (centres unmarked) [Ex 16-46, 4-({4-[(3-amino-2-fluoro-propyl)amino]butyl}amino)-5-chloro-2-fluoro-N-(5-fluoro-1,3-thiazol-2-yl)-benzenesulfonamide] | 0.034 | > 970
8 | O=S(=O)(Nc1nccs1)c1cc(Cl)c(NCCCC(Cc2ccccc2)NC[C@@H]2CCCN2)cc1F (stereo partly drawn) [Ex 6-9, 5-chloro-2-fluoro-4-[(5-phenyl-4-{[(2S)-pyrrolidin-2-ylmethyl]amino}pentyl)amino]-N-1,3-thiazol-2-ylbenzenesulfonamide] | 0.017 | 1530
9 | O=S(=O)(Nc1ncc(F)s1)c1cc(Cl)c(NCCCCNCCNC2C3CC4CC(C3)CC2C4)cc1F (centres unmarked) [Ex 16-07, 5-chloro-2-fluoro-N-(5-fluoro-1,3-thiazol-2-yl)-4-[(4-{[2-(tricyclo[3.3.1.1~3,7~]dec-2-yl-amino)-ethyl]amino}butyl)-amino]-benzene-sulfonamide] | 0.0019 | > 17400
10 | NC[C@H]1CCN1CCCCNc1cc(F)c(S(=O)(=O)Nc2ncns2)cc1Cl [Ex 16-02, 4-({4-[(2R)-2-(aminomethyl)-azetidin-1-yl]butyl}amino)-5-chloro-2-fluoro-N-1,2,4-thiadiazol-5-yl-benzene-sulfonamide] | 0.02 | > 1650
11 | N#C[C@H]1CN[C@H](CNCCCCNc2cc(F)c(S(=O)(=O)Nc3nccs3)cc2Cl)C1 [Ex 8-7, 5-chloro-4-{[4-({[(2S,4R)-4-cyanopyrrolidin-2-yl]-methyl}amino)butyl]amino}-2-fluoro-N-1,3-thiazol-2-ylbenzenesulfonamide] | 0.087 | > 380
12 | O=S(=O)(Nc1nccs1)c1cc(Cl)c(NCCCCN2CCCNCC2)cc1F [Ex 1-53, 5-chloro-4-{[4-(1,4-diazepan-1-yl)butyl]-amino}-2-fluoro-N-1,3-thiazol-2-yl-benzenesulfonamide] | 0.079 | > 418
13 | N[C@H]1CCCN(CCCCNc2cc(F)c(S(=O)(=O)Nc3nccs3)cc2Cl)C1 [Ex 1-37, 4-({4-[(3S)-3-aminopiperidin-1-yl]butyl}amino)-5-chloro-2-fluoro-N-1,3-thiazol-2-ylbenzenesulfonamide] | 0.097 | > 340
14 | NC1CCN(CCCCNc2cc(F)c(S(=O)(=O)Nc3nccs3)cc2Cl)CC1 [Ex 1-49, 4-{[4-(4-aminopiperidin-1-yl)butyl]amino}-5-chloro-2-fluoro-N-1,3-thiazol-2-ylbenzenesulfonamide] | 0.033 | > 1000
15 | O=S(=O)(Nc1nccs1)c1cc(Cl)c(NCC(CCNC[C@@H]2CCCN2)c2ccccc2)cc1F (stereo partly drawn) [Ex 10-3, 5-chloro-2-fluoro-4-((2-phenyl-4-(((S)-pyrrolidin-2-ylmethyl)amino)butyl)amino)-N-(thiazol-2-yl)benzenesulfonamide] | 0.078 | > 423
16 | N[C@@H]1CCN(CCCCNc2cc(F)c(S(=O)(=O)Nc3nccs3)cc2Cl)C1 [Ex 1-36, 4-({4-[(3R)-3-aminopyrrolidin-1-yl]butyl}amino)-5-chloro-2-fluoro-N-1,3-thiazol-2-ylbenzenesulfonamide] | 0.018 | > 1830
17 | C[C@@H](N)CNCCCCCNc1cc(F)c(S(=O)(=O)Nc2nccs2)cc1Cl [Ex 9-05, 4-[(5-{[(2R)-2-aminopropyl]-amino}penty)amino]-5-chloro-2-fluoro-N-1,3-thiazol-2-yl-benzenesulfonamide] | 0.079 | > 420
18 | O=S(=O)(Nc1nccs1)c1cc(Cl)c(NCCCCN2CCC3CNCC3C2)cc1F (centres unmarked) [Ex 1-48, 5-chloro-2-fluoro-4-{[4-(octahydro-5H-pyrrolo[3,4-c]pyridin-5-yl)butyl]amino}-N-1,3-thiazol-2-ylbenzenesulfonamide] | 0.023 | > 1434
19 | O=S(=O)(Nc1nccs1)c1cc(Cl)c(NCCCCNCCNCc2ccccc2)cc1F [Ex 1-3, 4-[(4-{[2-(benzylamino)ethyl]amino}butyl)amino]-5-chloro-2-fluoro-N-1,3-thiazol-2-ylbenzenesulfonamide] | 0.007 | > 4700
